Assay results published in patent US20150174145A1, “Pharmaceutical compounds with the structure of ionic salts with antibiotic and anticancer action” (priority 2013, published 2015).
Like-named read-outs stand apart in the source and are kept apart here.

Experiments:
E. coli ATCC 25922 = test: Minimum inhibitory concentration, ampicillin sensitive strains; format: cell-based, Escherichia coli; settings: for Minimum inhibitory concentrations: E. coli ATCC 25922, Gram-negative, ampicillin sensitive
Protocol: (§1) Each one of the 24 combinations of the ionic liquids were tested with following 9 bacteria: • Escherichia coli ATCC25922 • Staphylococcus aureus ATCC25923 • Klebsiella pneumonia • Staphylococcus epidermidis • Enterococcus fecalis • E. coli Tem CTXM9 • E. coli CTXM2 • E. coli AmpCMox2 • Saccharomyces cerevisiae PYCC 4072
(§2) These bacteria were tested in Vitek2 systems from bioMérieux. Bacteria were grown on Trypticase soy agar for 24 hours at 37° C. prior to each test. The bacteria assays were made in Tryptic Soy Broth.

K. pneumoniae = test: as above; format: cell-based, Klebsiella pneumonia; settings: for Minimum inhibitory concentrations: K. pneumoniae, Gram-negative, ampicillin sensitive
Protocol: as §1, §2

S. aureus ATCC 25923 = test: as above; format: cell-based, Staphylococcus aureus; settings: for Minimum inhibitory concentrations: S. aureus ATCC 25923, Gram-positive, ampicillin sensitive
Protocol: as §1, §2

E. fecalis = test: as above; format: cell-based, Enterococcus fecalis; settings: for Minimum inhibitory concentrations: E. fecalis, Gram-positive, ampicillin sensitive
Protocol: as §1, §2

S. epidermis = test: as above; format: cell-based, Staphylococcus epidermidis; settings: for Minimum inhibitory concentrations: S. epidermis, Gram-positive, ampicillin sensitive
Protocol: as §1, §2

E. coli CTX M2 = test: Minimum inhibitory concentration, ampicillin resistant strains; format: cell-based; settings: for Minimum inhibitory concentrations: E. coli CTX M2, ampicillin resistant
Protocol: as §1, §2

E. coli TEM CTX M9 = test: as above; format: cell-based; settings: for Minimum inhibitory concentrations: E. coli TEM CTX M9, ampicillin resistant
Protocol: as §1, §2

E. coli AmpC MOX2 = test: microbe, parasite or virus in culture; format: cell-based; settings: for Minimum inhibitory concentrations: E. coli AmpC MOX2, ampicillin resistant
Protocol: as §1, §2

SF (skin fibroblasts) = test: MTT cellular viability/proliferation, primary human cells; format: cell-based; settings: MTT assay
Protocol: (§3) At about 70-80% confluence, cells were enzymatically detached with 0.05% trypsin and 0.5 mM EDTA and seeded at 10^4 cells cm^−2.
(§4) After an attachment period of 24 hours, the culture medium was renewed, and supplemented with different concentrations (0.005-500 mM) of the ampicillin derived ionic liquid. Cell cultures were maintained in a 5% CO2 humidified atmosphere at 37° C.
(§5) Cellular viability/proliferation was assessed by the MTT assay at days 1, 3 and 5 of the culture. This assay is based on the reduction of 3-(4,5-dimethylthiazol-2-yl)-2,5-diphenyltetrazolium bromide (MTT) to a purple formazan product by viable cells.
(§6) Shortly, cultured cells were incubated at 37° C. with 0.5 mg ml −1 of MTT for 4 hours. The culture medium was then removed; the stained product dissolved with dimethylsulfoxide, and absorbance determined at 550 nm in an ELISA plate rewader. Results were expressed as absorbance per cm2.
(§7) The values of the […] (IC50) and the median lethal dose (LD50) were obtained from nonlinear regression analysis of concentration effect curves using the GGraphPad Prism Software.
(§8) It is used to measure the efficacy of a compound in inhibiting any biochemical or biological function.

[1] = test system: gingival fibroblasts (GF); test: as above; format: cell-based; settings: MTT assay
Protocol: as §3, §4, §5, §6, §7, §8

[2] = test system: MG63 (osteosarcoma cell line); test: MTT cellular viability/proliferation, cancer cell lines; format: cell-based, human; settings: MG63, MTT assay
Protocol: as §3, §4, §5, §6, §7, §8

[3] = test system: RKO (colon cancer cell line); test: as above; format: cell-based, human; settings: MTT assay
Protocol: as §3, §4, §5, §6, §7, §8

[4] = test system: T47D (ductal breast epithelial tumour cell line); test: cells; format: cell-based
Protocol: as §3, §4, §5, §6, §7, §8

[5] = test system: HepG2 (hepatocellular liver carcinoma cell); test: MTT cellular viability/proliferation, cancer cell lines; format: cell-based, human; settings: HepG2, MTT assay
Protocol: as §3, §4, §5, §6, §7, §8

[6] = test system: PC3 (prostate cancer cell line); test: as above; format: cell-based, human; settings: PC3, MTT assay
Protocol: as §3, §4, §5, §6, §7, §8

CCCCCCCCCCCCCCCC[n+]1ccccc1.[Cl-] [[C16Pyr][Cl]]
Minimum inhibitory concentrations (E. coli ATCC 25922): 0.5 mM | Minimum inhibitory concentrations (K. pneumoniae): 2.5 mM | Minimum inhibitory concentrations (S. aureus ATCC 25923): 0.5 mM | Minimum inhibitory concentrations (E. fecalis): 0.5 mM | Minimum inhibitory concentrations (S. epidermis): 2.5 mM | Minimum inhibitory concentrations (E. coli CTX M2): >5 mM | Minimum inhibitory concentrations (E. coli TEM CTX M9): 0.5 mM | Minimum inhibitory concentrations (E. coli AmpC MOX2): >5 mM

CCCCCCCCCCCCCC[P+](CCCCCC)(CCCCCC)CCCCCC.[Cl-] [[P6,6,6,14][Cl]]
Minimum inhibitory concentrations (E. coli ATCC 25922): 2.5 mM | Minimum inhibitory concentrations (K. pneumoniae): 2.5 mM | Minimum inhibitory concentrations (S. aureus ATCC 25923): 2.5 mM | Minimum inhibitory concentrations (E. fecalis): >5 mM | Minimum inhibitory concentrations (S. epidermis): 2.5 mM | Minimum inhibitory concentrations (E. coli CTX M2): 5 mM | Minimum inhibitory concentrations (E. coli TEM CTX M9): 2.5 mM | Minimum inhibitory concentrations (E. coli AmpC MOX2): >5 mM

CCn1cc[n+](C)c1.[Br-] [[EMIM][Br]]
Minimum inhibitory concentrations (E. coli ATCC 25922): >5 mM | Minimum inhibitory concentrations (K. pneumoniae): >5 mM | Minimum inhibitory concentrations (S. aureus ATCC 25923): 0.05 mM | Minimum inhibitory concentrations (E. fecalis): >5 mM | Minimum inhibitory concentrations (S. epidermis): 5 mM | Minimum inhibitory concentrations (E. coli CTX M2): >5 mM | Minimum inhibitory concentrations (E. coli TEM CTX M9): 5 mM | Minimum inhibitory concentrations (E. coli AmpC MOX2): >5 mM

CC1(C)S[C@@H]2[C@H](NC(=O)[C@H](N)c3ccccc3)C(=O)N2[C@H]1C(=O)[O-].CCCCCCCCCCCCCCCC[n+]1ccccc1 [[C16Pyr][Amp]]
Minimum inhibitory concentrations (E. coli ATCC 25922): 0.5 mM | Minimum inhibitory concentrations (K. pneumoniae): 0.05 mM | Minimum inhibitory concentrations (S. aureus ATCC 25923): 0.005 mM | Minimum inhibitory concentrations (E. fecalis): 0.005 mM | Minimum inhibitory concentrations (S. epidermis): 0.005 mM | Minimum inhibitory concentrations (E. coli CTX M2): 0.05 mM | Minimum inhibitory concentrations (E. coli TEM CTX M9): 0.005 mM | Minimum inhibitory concentrations (E. coli AmpC MOX2): >5 mM | IC50 (SF (skin fibroblasts)): 0.032 µM | IC50 [1]: 0.012 µM | IC50 [2]: 0.011 µM | IC50 [3]: 0.226 µM | IC50 ([4]; T47D, MTT assay): 0.005 µM

CC1(C)S[C@@H]2[C@H](NC(=O)[C@H](N)c3ccccc3)C(=O)N2[C@H]1C(=O)[O-].C[n+]1ccn(CCO)c1 [[C2OHMIM][Amp]]
Minimum inhibitory concentrations (E. coli ATCC 25922): 5 mM | Minimum inhibitory concentrations (K. pneumoniae): >5 mM | Minimum inhibitory concentrations (S. aureus ATCC 25923): >5 mM | Minimum inhibitory concentrations (E. fecalis): 5 mM | Minimum inhibitory concentrations (S. epidermis): 2.5 mM | Minimum inhibitory concentrations (E. coli CTX M2): >5 mM | Minimum inhibitory concentrations (E. coli TEM CTX M9): >5 mM | Minimum inhibitory concentrations (E. coli AmpC MOX2): 5 mM | IC50 (SF (skin fibroblasts)): 5.08 µM | IC50 [1]: 0.462 µM | IC50 [5]: 0.319 µM | IC50 [2]: 0.738 µM | IC50 [3]: 0.359 µM | IC50 ([4]; T47D, MTT assay): 0.146 µM

CC1(C)S[C@@H]2[C@H](NC(=O)[C@H](N)c3ccccc3)C(=O)N2[C@H]1C(=O)[O-].CC[n+]1ccn(C)c1 [[EMIM][Amp]]
Minimum inhibitory concentrations (E. coli ATCC 25922): >5 mM | Minimum inhibitory concentrations (K. pneumoniae): >5 mM | Minimum inhibitory concentrations (S. aureus ATCC 25923): >5 mM | Minimum inhibitory concentrations (E. fecalis): >5 mM | Minimum inhibitory concentrations (S. epidermis): >5 mM | Minimum inhibitory concentrations (E. coli CTX M2): >5 mM | Minimum inhibitory concentrations (E. coli TEM CTX M9): >5 mM | Minimum inhibitory concentrations (E. coli AmpC MOX2): >5 mM | IC50 [1]: 0.853 µM | IC50 [6]: 30 µM | IC50 [3]: 0.269 µM

CC[N+](CC)(CC)CC [[TEA][Br], Tetraethylammonium bromide]
MIC (E. coli ATCC 25922; Escherichia coli, ATCC25922, read-out: Minimum inhibitory concentrations): > 5 mM | MIC (K. pneumoniae; Klebsiella pneumoniae, read-out: Minimum inhibitory concentrations): > 5 mM | MIC (S. aureus ATCC 25923; Staphylococcus aureus, ATCC25923, read-out: Minimum inhibitory concentrations): 2.5 mM | MIC (E. fecalis; Enterococcus, read-out: Minimum inhibitory concentrations): > 5 mM | MIC (S. epidermis; Staphylococcus epidermidis, read-out: Minimum inhibitory concentrations): > 5 mM | MIC (E. coli CTX M2; Escherichia coli, CTXM2, read-out: Minimum inhibitory concentrations): 2.5 mM | MIC (E. coli TEM CTX M9; Escherichia coli, read-out: Minimum inhibitory concentrations): > 5 mM | MIC (E. coli AmpC MOX2; Escherichia coli, AMPCMOX2, read-out: Minimum inhibitory concentrations, E. coli AmpC MOX2, ampicillin resistant): > 5 mM

C[N+](C)(C)CCO.[Cl-] [[Cholin][Cl]]
Minimum inhibitory concentrations (E. coli ATCC 25922): >5 mM | Minimum inhibitory concentrations (K. pneumoniae): >5 mM | Minimum inhibitory concentrations (S. aureus ATCC 25923): 2.5 mM | Minimum inhibitory concentrations (E. fecalis): >5 mM | Minimum inhibitory concentrations (S. epidermis): >5 mM | Minimum inhibitory concentrations (E. coli CTX M2): >5 mM | Minimum inhibitory concentrations (E. coli TEM CTX M9): >5 mM | Minimum inhibitory concentrations (E. coli AmpC MOX2): >5 mM

CC1(C)S[C@@H]2[C@H](NC(=O)[C@H](N)c3ccccc3)C(=O)N2[C@H]1C(=O)[O-].[Na+] [[Na][Amp]] [sodium ampicillin]
Minimum inhibitory concentrations (E. coli ATCC 25922): 0.05 mM | Minimum inhibitory concentrations (K. pneumoniae): 2.5 mM | Minimum inhibitory concentrations (S. aureus ATCC 25923): 0.005 mM | Minimum inhibitory concentrations (E. fecalis): 0.05 mM | Minimum inhibitory concentrations (S. epidermis): 0.05 mM | Minimum inhibitory concentrations (E. coli CTX M2): >5 mM | Minimum inhibitory concentrations (E. coli TEM CTX M9): >5 mM | Minimum inhibitory concentrations (E. coli AmpC MOX2): >5 mM | IC50 [1]: 109 µM | IC50 [6]: 0.597 µM | IC50 [3]: 2.41 µM

CC1(C)S[C@@H]2[C@H](NC(=O)[C@H](N)c3ccccc3)C(=O)N2[C@H]1C(=O)[O-].C[N+](C)(C)CCO [[Cholin][Amp]]
Minimum inhibitory concentrations (E. coli ATCC 25922): >5 mM | Minimum inhibitory concentrations (K. pneumoniae): >5 mM | Minimum inhibitory concentrations (S. aureus ATCC 25923): >5 mM | Minimum inhibitory concentrations (E. fecalis): >5 mM | Minimum inhibitory concentrations (S. epidermis): >5 mM | Minimum inhibitory concentrations (E. coli CTX M2): >5 mM | Minimum inhibitory concentrations (E. coli TEM CTX M9): >5 mM | Minimum inhibitory concentrations (E. coli AmpC MOX2): >5 mM | IC50 (SF (skin fibroblasts)): 48.5 µM | IC50 [5]: 1.62 µM | IC50 [2]: 0.017 µM | IC50 [6]: 0.982 µM

C[n+]1ccn(CCO)c1.[Cl-] [[C2OHMIM][Cl]]
Minimum inhibitory concentrations (E. coli ATCC 25922): 5 mM | Minimum inhibitory concentrations (K. pneumoniae): >5 mM | Minimum inhibitory concentrations (S. aureus ATCC 25923): >5 mM | Minimum inhibitory concentrations (E. fecalis): 5 mM | Minimum inhibitory concentrations (S. epidermis): 5 mM | Minimum inhibitory concentrations (E. coli CTX M2): 2.5 mM | Minimum inhibitory concentrations (E. coli TEM CTX M9): >5 mM | Minimum inhibitory concentrations (E. coli AmpC MOX2): 5 mM

CC1(C)S[C@@H]2[C@H](NC(=O)[C@H](N)c3ccccc3)C(=O)N2[C@H]1C(=O)[O-].CC[N+](CC)(CC)CC [[TEA][Amp], tetraethyl ammonium salt of Ampicillin]
Minimum inhibitory concentrations (E. coli ATCC 25922): >5 mM | Minimum inhibitory concentrations (K. pneumoniae): >5 mM | Minimum inhibitory concentrations (S. aureus ATCC 25923): >5 mM | Minimum inhibitory concentrations (E. fecalis): >5 mM | Minimum inhibitory concentrations (S. epidermis): >5 mM | Minimum inhibitory concentrations (E. coli CTX M2): >5 mM | Minimum inhibitory concentrations (E. coli TEM CTX M9): >5 mM | Minimum inhibitory concentrations (E. coli AmpC MOX2): >5 mM | IC50 [2]: 0.03 µM | IC50 [6]: 35.6 µM | IC50 [3]: 56.7 µM | IC50 [4]: 0.042 µM
